From US9475779B2, “Substituted bicyclic dihydropyrimidinones and their use as inhibitors of neutrophil elastase activity” (priority 2014, dated 2016)
≈ marks a conversion by molar mass, not a printed value.

Tests used:
cytochrome P450 2C19 = cytochrome P450 2C19 (Homo sapiens (Human), UniProt P33261); experiment: biochemical
human hepatocytes = experiment: Metabolic stability with human hepatocytes; assay type: in vitro ADME; conditions: well stirred model
Protocol: Assay for the Determination of Metabolic Stability with Human Hepatocytes
The metabolic degradation of the test compound is assayed in a human hepatocyte suspension. Human hepatocytes (typically cryopreserved) are incubated in an appropriate buffer system (e.g. Dulbecco's modified eagle medium plus […]/500 mL, 2.5 mg insulin/500 mL and 3.75 mg/500 mL hydrocortison) containing 5% species serum. Following a (typically) 30 min preincubation in an incubator (37° C., 10% CO2), 5 μl of test compound solution (80 μM; from 2 mM stock solution in DMSO diluted 1:25 with medium) are added into 395 μl hepatocyte suspension (cell density in the range 0.25-5*10^6 cells/mL, typically 1*10^6 cells/mL; final concentration of test compound 1 μM, final DMSO concentration 0.05%). The cells are incubated for six hours (incubator, orbital shaker) and samples (25 μl) are taken at 0, 0.5, 1, 2, 4 and 6 hours. Samples are transferred into acetonitrile and pelleted by centrifugation (5 min). […] The decline of parent compound is analyzed by LC-MS/MS.
The intrinsic clearance CL_[…] is calculated as follows: CL_[…]=Dose/AUC=(C0/CD)/(AUD+clast/k)*1′000/60 (C0: initial concentration in the incubation […], CD: cell density of vital cells [10^6 cells/mL], AUD: area under the data [μM*h], clast: concentration of last data point [μM], k: slope of the regression line for parent decline [h^−1]) […]

physchem = assay type: physicochemical; conditions: McIlvaine buffer pH 6.8 containing 2.5% DMSO, pH 6.8, aqueous buffer, kinetic from dmso stock, McIlvaine buffer pH 6.8, 2.5% DMSO, 24 h
neutrophil elastase [1] = molecular target: T1, neutrophil elastase (Homo sapiens (Human), UniProt P08246); experiment: biochemical
T1 sequence (P08246 whole entry, looked up): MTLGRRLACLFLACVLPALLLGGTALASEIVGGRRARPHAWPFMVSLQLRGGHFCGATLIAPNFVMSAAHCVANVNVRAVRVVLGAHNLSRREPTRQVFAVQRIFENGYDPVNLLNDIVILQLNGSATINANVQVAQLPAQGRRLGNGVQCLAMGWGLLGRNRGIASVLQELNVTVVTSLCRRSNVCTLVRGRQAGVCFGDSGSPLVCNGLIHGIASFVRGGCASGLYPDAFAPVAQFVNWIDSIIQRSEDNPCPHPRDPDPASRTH

cytochrome P450 2C9 = cytochrome P450 2C9 (Homo sapiens (Human), UniProt P11712); experiment: biochemical
Sequence of cytochrome P450 2C9 (P11712 whole entry, looked up): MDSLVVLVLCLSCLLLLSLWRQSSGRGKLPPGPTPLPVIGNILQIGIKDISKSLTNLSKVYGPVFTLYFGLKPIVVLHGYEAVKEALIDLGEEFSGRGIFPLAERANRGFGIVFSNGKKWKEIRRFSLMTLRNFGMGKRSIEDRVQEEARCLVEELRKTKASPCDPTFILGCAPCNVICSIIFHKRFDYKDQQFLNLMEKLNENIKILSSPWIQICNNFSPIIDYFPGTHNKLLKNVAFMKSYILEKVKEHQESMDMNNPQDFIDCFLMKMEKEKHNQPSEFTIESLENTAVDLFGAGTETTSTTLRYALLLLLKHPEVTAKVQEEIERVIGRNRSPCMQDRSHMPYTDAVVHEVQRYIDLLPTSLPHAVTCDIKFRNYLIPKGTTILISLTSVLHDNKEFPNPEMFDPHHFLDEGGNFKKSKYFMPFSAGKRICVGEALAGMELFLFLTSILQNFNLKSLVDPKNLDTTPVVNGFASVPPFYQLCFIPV

hERG potassium channel = hERG potassium channel (Homo sapiens (Human), UniProt Q12809); experiment: in vitro
[2] = Metabolic stability with human liver microsomes; assay type: in vitro ADME; conditions: human, pooled human liver microsomes, pH 7.6, pooled human liver microsomes, 1 μM test compound, 37° C.; read-out: t1/2 INVITRO
Caco-2 cells = experiment: in vitro; assay type: in vitro ADME; conditions: pH 7.2
cytochrome P450 2C8 = cytochrome P450 2C8 (Homo sapiens (Human), UniProt P10632); experiment: biochemical
Sequence of cytochrome P450 2C8 (P10632 whole entry, looked up): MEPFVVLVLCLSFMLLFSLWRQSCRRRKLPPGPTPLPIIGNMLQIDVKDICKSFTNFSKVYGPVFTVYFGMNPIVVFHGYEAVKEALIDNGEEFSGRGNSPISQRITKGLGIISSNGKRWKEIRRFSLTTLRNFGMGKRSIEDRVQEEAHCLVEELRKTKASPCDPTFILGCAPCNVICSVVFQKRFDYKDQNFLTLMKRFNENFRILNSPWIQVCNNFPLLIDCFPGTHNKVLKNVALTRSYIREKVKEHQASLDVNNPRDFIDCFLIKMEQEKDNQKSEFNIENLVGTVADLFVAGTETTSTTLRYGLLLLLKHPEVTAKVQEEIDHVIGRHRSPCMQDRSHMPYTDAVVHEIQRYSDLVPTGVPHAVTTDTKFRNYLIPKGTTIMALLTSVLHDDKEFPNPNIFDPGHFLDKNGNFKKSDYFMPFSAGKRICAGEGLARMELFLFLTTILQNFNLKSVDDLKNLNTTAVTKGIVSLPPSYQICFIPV

neutrophil elastase [3] = molecular target: T1, neutrophil elastase; experiment: biochemical; assay type: biochemical; conditions: read-out: IC50
Protocol: Human Neutrophil Elastase Assay
All other materials were of the highest grade commercially available.
The following buffers were used: Compound buffer: 100 mM Tris, 500 mM NaCl, adjusted to pH 7.5; Assay buffer: 100 mM Tris, 500 mM NaCl, adjusted to pH 7.5, containing 0.01% BSA.
Assay conditions: Test compounds were prediluted in DMSO and subsequently in compound buffer (5% DMSO final). […] After inactivation of the enzyme, fluorescence intensities were measured at 380 nm excitation and 460 nm emission wavelengths.
Each plate contains wells with a high value control (DMSO+enzyme+substrate) and wells with a low value control (DMSO+inactivated enzyme+substrate). IC50 values were estimated using a sigmoidal concentration response curve with variable slope. Means of low values were taken as 0%, means of high values as 100%.

Sequence of cytochrome P450 2C19 (P33261 whole entry, looked up): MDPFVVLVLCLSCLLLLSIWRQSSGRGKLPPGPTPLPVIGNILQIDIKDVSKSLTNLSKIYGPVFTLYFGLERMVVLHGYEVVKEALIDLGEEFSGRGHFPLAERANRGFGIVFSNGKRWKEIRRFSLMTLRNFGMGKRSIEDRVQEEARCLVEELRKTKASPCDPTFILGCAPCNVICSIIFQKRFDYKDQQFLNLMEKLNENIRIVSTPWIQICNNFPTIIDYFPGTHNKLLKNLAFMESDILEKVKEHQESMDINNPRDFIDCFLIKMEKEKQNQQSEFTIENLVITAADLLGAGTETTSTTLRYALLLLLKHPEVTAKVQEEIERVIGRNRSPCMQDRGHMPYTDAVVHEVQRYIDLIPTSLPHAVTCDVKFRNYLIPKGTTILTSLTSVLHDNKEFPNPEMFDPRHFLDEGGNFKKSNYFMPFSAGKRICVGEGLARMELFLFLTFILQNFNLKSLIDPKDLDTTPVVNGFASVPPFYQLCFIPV

SMILES: CN1C(=O)N(c2cccc(C(F)(F)F)c2)C2=C(C(=O)CC2)[C@H]1c1ccc(C#N)cc1[S+](C)[O-] (single isomer, unassigned) [Example C.2A, 3-Methanesulfinyl-4-[3-methyl-2,5-dioxo-1-(3-trifluoromethyl-phenyl)-2,3,4,5,6,7-hexahydro-1H-cyclopentapyrimidin-4-yl]-benzonitrile]
- IC50 (cytochrome P450 2C19): > 50 µM
- predicted hepatic in vivo blood clearance (human hepatocytes): 3 % human hepatic blood flow
- solubility at 24 h (physchem): 58 µg/mL (≈ 122 µM)
- EC50 (neutrophil elastase [1]): 0.002 µM
- IC50 (cytochrome P450 2C9): > 50 µM
- inhibition at 10 µM (hERG potassium channel): 7%
- half-life at 1 μM [2]: > 2.17 h
- PEAB (Caco-2 cells): 13 ×10⁻⁶ cm/s
- PEBA (Caco-2 cells): 73 ×10⁻⁶ cm/s
- IC50 (cytochrome P450 2C8): > 50 µM
- IC50 (neutrophil elastase [3]): < 0.001 µM
